Laboratory results taken from PubChem BioAssay AID652041 (Broad Institute, 2013).
Calls of active or inactive are those of the source.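 Rule for the calls: active = fitted curve reaching a 35% signal drop at a concentration under 10 µM, within twice the top tested dose; inconclusive = no clear call, values can overlap the other calls; inactive = the rest, including activity opposite to the expected direction.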

test system: P. falciparum HB3 in RBCs, SYBR Green DNA fluorescence; assay: growth inhibition of P. falciparum HB3, dose response, HB3 strain, red blood cells, SYBR Green, cherry-picked (AID 652041); settings: not given;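 note: parasites exposed to compound for 72 hours before the DNA read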

With `Cc1ccc(NS(=O)(=O)c2ccc(N3CCN(c4ccc(O)cc4)CC3)c([N+](=O)[O-])c2)c(C)c1` as the compound, how does the AC35 read?
The AC35 was 10.4 µM.

For `CN(C)c1ccc(C=c2c3ccccc3n3c2c2c([n+]3C)CCCC2)cc1`, which AC35 is on record?
The AC35 was 0.228 µM.

With `O/N=C(\c1ccc(Cl)cc1Cl)c1ncc(C(F)(F)F)cc1Cl` as the compound, how does the AC35 read?
The AC35 was 11.6 µM.

With `O=P(Nc1cccnc1)(Oc1ccccc1Cl)Oc1ccccc1Cl` as the compound, how does the AC35 read?
Its AC35 is 37.1 µM.

Which AC35 does the source give for `CC(/C=N/n1c(COc2ccccc2)n[nH]c1=S)=C\c1ccccc1` here?
The AC35 was 42.2 µM.

Which AC35 does the source give for `C=CCc1ccc(O)c(-c2ccc(O)c(CC=C)c2)c1` here?
The AC35 was 14.7 µM.

Which AC35 does the source give for `CCn1c2ccc(C)cc2c2nc3cc(C(=O)O)ccc3nc21` here?
Its AC35 is 37.1 µM.

With `Cc1ccc2oc(-c3ccccc3)c(C(=O)O)c(=O)c2c1` as the compound, how does the AC35 read?
Its AC35 is 20.3 µM.

With `CCCCCCCCCCOC(=O)Cn1c(COc2ccccc2OC)[n+](C)c2ccccc21` as the compound, how does the AC35 read?
The AC35 was 0.346 µM.

Which AC35 does the source give for `Oc1c(I)cc(Cl)c2cccnc12` here?
The AC35 was 1.67 µM.

For `Clc1nc(-c2ccccn2)nc2scc(-c3ccccc3)c12`, which AC35 is on record?
Its AC35 is 2.39 µM.

For `NC(=O)N=Nc1c2[nH]c3ccccc3nc-2c2ccccc12`, which AC35 is on record?
The AC35 was 21.1 µM.

With `CCCCOC(=O)/C=C/c1ccc(OC(=O)OC)c(OC(=O)OC)c1` as the compound, how does the AC35 read?
Its AC35 is 11 µM.

For `O=C(c1ccccc1)c1ccc(Cn2cc(-c3ccccc3)nn2)cc1`, which AC35 is on record?
The AC35 was 40.3 µM.

For `CC1CCN(c2nc(-c3ccncc3)nc3ccccc23)CC1`, which AC35 is on record?
Its AC35 is 8.17 µM.

With `CC12CC3(C)CC(C)(C1)CC(NC(=O)N1CCCC1)(C2)C3` as the compound, how does the AC35 read?
Its AC35 is 14.9 µM.

For `O=C(c1ccc(Cl)cc1)N1CCN(c2ccc(F)cc2)CC1`, which AC35 is on record?
Its AC35 is 35.2 µM.

Which AC35 does the source give for `CC(C)(C)n1nc(Cc2cccc3ccccc23)c2c(N)ncnc21` here?
The AC35 was 23.6 µM.

For `CCN(CC)C(=O)CSc1ncnc2sc(-c3ccccc3)cc12`, which AC35 is on record?
Its AC35 is 36.6 µM.

With `Cn1nc(C(F)(F)F)c(C#N)c1N1CCN(c2ccc(F)cc2)CC1` as the compound, how does the AC35 read?
Its AC35 is 18.7 µM.

With `COc1cccc(/C=N/Nc2ncnc(Cl)c2N)c1O` as the compound, how does the AC35 read?
Its AC35 is 0.942 µM.

Which AC35 does the source give for `C=CCNc1nc(-c2ccccn2)nnc1-c1ccccc1` here?
The AC35 was 2.22 µM.

Which AC35 does the source give for `CCCCc1ccc(-n2c(Cc3cccs3)n[nH]c2=S)cc1` here?
The AC35 was 29.2 µM.

With `CN(Cc1ccc(Cl)s1)C(=O)CCl` as the compound, how does the AC35 read?
Its AC35 is 5.21 µM.

Which AC35 does the source give for `CCCCCCC(Cl)(Cn1ccnc1)c1ccccc1` (centres undefined) here?
The AC35 was 3.48 µM.

With `Cc1ccc(NC(=O)CN(C)C(=O)c2cccnc2Nc2cccc(C(F)(F)F)c2)cc1` as the compound, how does the AC35 read?
Its AC35 is 10.5 µM.

Which AC35 does the source give for `O=c1c(CO)cc(CO)cc(CO)c1O` here?
Its AC35 is 20.8 µM.

For `O=[N+]([O-])c1ccc(Sc2cccc[n+]2[O-])c2nonc12`, which AC35 is on record?
The AC35 was 1.41 µM.

For `O=C(Nc1ccc(Br)c(C(F)(F)F)c1)c1ccccc1`, which AC35 is on record?
Its AC35 is 10.7 µM.

Which AC35 does the source give for `CCCCNC(=S)N/N=C1\CCCCc2ccccc21` here?
Its AC35 is 16.8 µM.

With `CC(=O)C1=C(c2ccc(Br)cc2)C(=O)c2ccccc2C1=O` as the compound, how does the AC35 read?
Its AC35 is 0.472 µM.

With `Cc1cccc(Oc2nc(-c3ccccn3)nc3ccccc23)c1` as the compound, how does the AC35 read?
Its AC35 is 6.06 µM.

Which AC35 does the source give for `Cc1ccoc1C(=O)Nc1cccc(Oc2ccccc2)c1` here?
The AC35 was 6.15 µM.

For `c1ccc(-c2ccc(SCc3cccnc3)nn2)nc1`, which AC35 is on record?
Its AC35 is 35.5 µM.

Which AC35 does the source give for `CC[n+]1c(/C=C/C=C/c2ccc(N(C)C)cc2)sc2ccccc21` here?
The AC35 was 2.68 µM.

With `Nc1nc(-c2ccc(Oc3ccccc3)cc2)cs1` as the compound, how does the AC35 read?
Its AC35 is 30.3 µM.

For `CC(C)N1CCN(c2ccc(OCC3COC(Cn4cncn4)(c4ccc(Cl)cc4Cl)O3)cc2)CC1` (centres undefined), which AC35 is on record?
Its AC35 is 4.53 µM.

For `O=C(CSc1ccc(-c2ccccn2)nn1)NCc1ccc(F)cc1`, which AC35 is on record?
Its AC35 is 37.5 µM.

With `O=C(Oc1c(Cl)cc(Cl)c2cccnc12)c1cccs1` as the compound, how does the AC35 read?
The AC35 was 19 µM.

With `NC(=Nc1nc(-c2ccccn2)cc2ccccc12)c1ccccn1` as the compound, how does the AC35 read?
Its AC35 is 0.22 µM.

For `O=C(NOC(=O)c1ccccc1)c1ccccc1`, which AC35 is on record?
The AC35 was 20.1 µM.

With `Cc1ccc(O)c(-c2cc(-c3ccccc3C)[nH]n2)c1` as the compound, how does the AC35 read?
The AC35 was 6.3 µM.

With `COC(=O)COC(=O)c1ccccc1NC(=O)c1ccccc1` as the compound, how does the AC35 read?
The AC35 was 25.8 µM.

Which AC35 does the source give for `O=C(COc1ccc([N+](=O)[O-])cc1)Nc1nc(-c2ccccn2)cs1` here?
The AC35 was 6.38 µM.

For `Cc1ccc(NC2(c3nnnn3-c3c(C)cccc3C)CCCCC2)cc1`, which AC35 is on record?
The AC35 was 18 µM.

Which AC35 does the source give for `COc1ccc(N=N/C(=C\O)C(=O)c2cccs2)cc1` here?
The AC35 was 7.99 µM.

Which AC35 does the source give for `COc1ccc(N(C)S(=O)(=O)c2ccc(Cl)c(C(=O)NNC(=O)c3ccccc3O)c2)cc1` here?
The AC35 was 35.8 µM.

With `O=C(Nc1nnc(SCc2ccc(F)cc2)s1)c1ccccn1` as the compound, how does the AC35 read?
The AC35 was 1.93 µM.

Which AC35 does the source give for `CC(C)=CCc1c(O)ccc(C(=O)Cc2ccccc2)c1O` here?
The AC35 was 11 µM.

Which AC35 does the source give for `O=Cc1cc(N=Nc2ccccc2Cl)ccc1O` here?
The AC35 was 2.27 µM.

With `Nc1cc2nc3ccccc3oc-2cc1=O` as the compound, how does the AC35 read?
The AC35 was 1.01 µM.

With `Oc1ccc(N=Nc2ccc3c(c2)OCCO3)c2cccnc12` as the compound, how does the AC35 read?
The AC35 was 0.854 µM.

With `CNc1ccc2oc(C[C@H]3O[C@@]4(CC[C@H]3C)O[C@H]([C@H](C)C(=O)c3ccc[nH]3)[C@H](C)C[C@H]4C)nc2c1C(=O)O` as the compound, how does the AC35 read?
Its AC35 is 0.833 µM.

For `C=CCOC(Cn1ccnc1)c1ccc(Cl)cc1Cl` (centres undefined), which AC35 is on record?
The AC35 was 7.38 µM.

Which AC35 does the source give for `Oc1ccc(/C=N/Nc2ccc(C(F)(F)F)cn2)c(O)c1` here?
Its AC35 is 6.46 µM.

For `O=C(NC(=S)N(CCc1ccccc1)CCc1ccccc1)c1ccco1`, which AC35 is on record?
The AC35 was 13.3 µM.

With `CC(C)C(=O)NC(c1ccco1)c1ccc2cccnc2c1O` (centres undefined) as the compound, how does the AC35 read?
Its AC35 is 1.77 µM.

Which AC35 does the source give for `CCN(CC)c1ccc(/C=N/NC(=O)c2c(Cl)cnn2C)c(O)c1` here?
The AC35 was 2.66 µM.

Which AC35 does the source give for `CCC(Oc1ccc(Br)cc1Cl)C(=O)Nc1nnc(C2CC2)s1` (centres undefined) here?
The AC35 was 33.3 µM.

Which AC35 does the source give for `Cc1nc(SCc2ccc(OCCC(C)C)cc2)n[nH]1` here?
Its AC35 is 13.1 µM.

Which AC35 does the source give for `COc1ccc(-c2oc3ccccc3c2C#Cc2cncn2C)cc1` here?
The AC35 was 0.87 µM.

For `COc1ccc(/C=N/Nc2cc(C)nc(-n3nc(C)cc3C)n2)cc1`, which AC35 is on record?
Its AC35 is 1.54 µM.

Which AC35 does the source give for `Cc1c(C2(O)CCCCC2)[nH]c2ccc(C(F)(F)F)cc12` here?
Its AC35 is 17.3 µM.

Which AC35 does the source give for `O=C(NCC1CC1(Cl)Cl)Nc1ccc(Cl)c(Cl)c1` (centres undefined) here?
The AC35 was 5.48 µM.

For `O=C(/C(=N/N=C/c1ccc(O)c(O)c1O)c1ccccc1)c1ccccc1`, which AC35 is on record?
Its AC35 is 3.7 µM.

For `COc1ccc(-c2cc(C(=O)N3CCN(c4ccccc4F)CC3)c3ccccc3n2)c(OC)c1`, which AC35 is on record?
Its AC35 is 6.74 µM.

Which AC35 does the source give for `O=S(=O)(Nc1ccccc1)c1ccc(Oc2ncc(C(F)(F)F)cc2Cl)cc1` here?
Its AC35 is 25.1 µM.

With `O=S(=O)(c1ccc(Cl)cc1)N1CCC2(CC1)OCCN2S(=O)(=O)c1cccs1` as the compound, how does the AC35 read?
The AC35 was 20 µM.

For `O=C(CC1CC2CCC1C2)Nc1nc(-c2ccccn2)cs1` (centres undefined), which AC35 is on record?
The AC35 was 3.99 µM.

With `COc1cnc(-c2ccccn2)nc1Oc1ccc(C(C)(C)C)cc1` as the compound, how does the AC35 read?
The AC35 was 4.82 µM.

For `O=C(c1ccc(-c2ccccc2)cc1)C1CCCN(C(=O)c2cncs2)C1` (centres undefined), which AC35 is on record?
Its AC35 is 7.38 µM.

Which AC35 does the source give for `CCCCCCn1c(=O)c(C(=O)Nc2ncccc2C)c(O)c2ccccc21` here?
The AC35 was 4.29 µM.

Which AC35 does the source give for `Cc1ccsc1/C=C/c1ccc2cccc(O)c2n1` here?
The AC35 was 11.9 µM.

With `Cc1ccc(NC(=S)c2nc3ccccc3[nH]2)c(C)c1` as the compound, how does the AC35 read?
The AC35 was 5.68 µM.

Which AC35 does the source give for `CN(c1ccccc1)c1nc(N2CCCC2)nc(-n2ccnc2)n1` here?
The AC35 was 11.1 µM.

test system: not listed separately; assay: as above; settings: P. falciparum HB3 in RBCs, SYBR Green DNA fluorescence; at 50 µM (top of the series)

Which activity change, negative = inhibition does the source give for `CCCCn1c(=O)c(C(=O)NCc2ccncc2)c(O)c2ccccc21` here?
The activity change, negative = inhibition was -14% (inactive).

Which activity change, negative = inhibition does the source give for `CC1Oc2ccccc2C=C1/C=N/Nc1ccc(C(=O)O)cc1` (centres undefined) here?
Its activity change, negative = inhibition is -20.4% (inactive).

For `c1ccc(-c2ccc(OCCCn3cncn3)cc2)cc1`, which activity change, negative = inhibition is on record?
The activity change, negative = inhibition was -10.3% (inactive).

For `CC12CCC(O)CC1=CCC1C2CCC2(C)C3=NN=CC3CC12` (centres undefined), which activity change, negative = inhibition is on record?
The activity change, negative = inhibition was -17.5% (inactive).

Which activity change, negative = inhibition does the source give for `CCCSC(=S)c1c(C)[nH]n(-c2ccccc2)c1=O` here?
The activity change, negative = inhibition was -14.2% (inactive).

For `Cc1cccc(C)c1N1C(=O)C2ON(c3ccccc3)C(c3ccncc3)C2C1=O` (centres undefined), which activity change, negative = inhibition is on record?
Its activity change, negative = inhibition is -11.3% (inactive).

Which activity change, negative = inhibition does the source give for `CCCOc1ccc2ccccc2c1/C=C1\SC(=O)NC1=O` here?
The activity change, negative = inhibition was -14.8% (inactive).

Which activity change, negative = inhibition does the source give for `COc1ccc(N(C(=O)c2ccncc2)S(=O)(=O)c2ccccc2)cc1` here?
Its activity change, negative = inhibition is -28% (inactive).

With `CC1=NN(C(N)=S)C(=O)C1N=Nc1cccc(Cl)c1C` (centres undefined) as the compound, how does the activity change, negative = inhibition read?
Its activity change, negative = inhibition is -12.3% (inactive).
